The source of these data is patent US11034694B2, “Substituted isoindolin-1-ones and 2,3-dihydro-1H-pyrrolo[3,4-c]pyridin-1-ones as HPK1 antagonists” (Nimbus Saturn, Inc., priority 2019, dated 2021).

The experiment concerns the target HPK1 (Homo sapiens (Human), UniProt Q92918). Description: HPK1 biochemical enzyme assay (microfluidic mobility shift assay). The conditions noted are these: 1 mM ATP; 1.5 nM HPK1; 30 min preincubation, 60 min reaction; Caliper EZ Reader; read-out: HPK1 1000UMATP caliper IC50. How it is done:
HPK1 biochemical enzyme assay: HPK1 enzyme inhibition was measured using a microfluidic mobility shift assay. […] Test compounds were titrated in ten point curves (top final assay concentration 3 μM), and preincubated with enzyme/substrate mix for 30 min prior to initiation of the reaction by addition of ATP (1 mM final concentration) and substrate (1 μM final concentration; Carna Biosciences) diluted in assay buffer supplemented by MgCl2 (final assay concentration of 5 mM). Following 60 min incubation at RT, the reaction was terminated by addition of 60 μl/well termination buffer (Carna Biosciences) and signal determination using a Caliper EZ Reader (Perkin Elmer, UK).

Chain of HPK1 (Q92918 whole entry): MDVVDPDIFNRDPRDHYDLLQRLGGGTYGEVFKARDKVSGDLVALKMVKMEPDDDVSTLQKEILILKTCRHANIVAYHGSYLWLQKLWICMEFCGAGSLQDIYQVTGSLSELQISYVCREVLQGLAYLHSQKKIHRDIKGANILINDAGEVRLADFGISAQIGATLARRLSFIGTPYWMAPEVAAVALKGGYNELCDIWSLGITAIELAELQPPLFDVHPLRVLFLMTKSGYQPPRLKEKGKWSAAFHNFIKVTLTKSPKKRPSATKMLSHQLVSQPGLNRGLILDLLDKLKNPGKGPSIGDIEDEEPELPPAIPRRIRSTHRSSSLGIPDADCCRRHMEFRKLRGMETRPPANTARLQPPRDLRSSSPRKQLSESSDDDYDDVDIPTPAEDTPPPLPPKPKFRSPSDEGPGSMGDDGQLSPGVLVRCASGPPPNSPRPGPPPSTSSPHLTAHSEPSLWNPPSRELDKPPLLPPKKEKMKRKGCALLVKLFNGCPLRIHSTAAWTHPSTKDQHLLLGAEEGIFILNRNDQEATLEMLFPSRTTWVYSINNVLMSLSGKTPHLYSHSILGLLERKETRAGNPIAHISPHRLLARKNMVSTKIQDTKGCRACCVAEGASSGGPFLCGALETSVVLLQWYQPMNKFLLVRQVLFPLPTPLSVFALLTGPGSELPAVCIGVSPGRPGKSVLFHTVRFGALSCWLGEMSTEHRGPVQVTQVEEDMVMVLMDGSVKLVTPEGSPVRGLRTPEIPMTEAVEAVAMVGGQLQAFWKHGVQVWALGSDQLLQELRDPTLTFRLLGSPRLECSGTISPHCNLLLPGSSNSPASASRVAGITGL

Usually IC50 stands for the point on the concentration scale where inhibition reaches its midpoint. With `O=C1NCc2c(-c3cnc4cc(F)ccn34)ccc(Nc3ccc(N4CC5CCC(C4)C5O)cn3)c21` (stereo not shown) [I-405, 4-(7-fluoroimidazo [1,2-a]pyridin-3-yl)-7-((5-(8-hydroxy-3-azabicyclo [3.2.1]octan-3-yl)pyridin-2-yl)amino)isoin-dolin-1-one], the IC50 is below 100 nM.
